Experimental data published in US8901133B2, “Heterocyclic compounds and uses thereof” (Infinity Pharmaceuticals, Inc., priority 2010, dated 2014).

Assays:
[1] = PBS pH 7.4, 37° C., 24 hours, 5 μM; cited from earlier work
[2] = control or reference compounds, 5 μM; cited from earlier work
lupus symptoms = conditions: B6.Sle1z.Sle3z model; cited from earlier work
PI3Kδ = target: T1, PI3Kδ (Homo sapiens, UniProt O00329); assay: PI3 Kinase HTRF assay, PI3Kδ; format: biochemical; conditions: 10 μM PIP2, 10 μM ATP; read-out: PI3K δ IC50
T1 construct: purchased Millipore Corporation 14-604-K
T1 sequence (O00329 whole entry): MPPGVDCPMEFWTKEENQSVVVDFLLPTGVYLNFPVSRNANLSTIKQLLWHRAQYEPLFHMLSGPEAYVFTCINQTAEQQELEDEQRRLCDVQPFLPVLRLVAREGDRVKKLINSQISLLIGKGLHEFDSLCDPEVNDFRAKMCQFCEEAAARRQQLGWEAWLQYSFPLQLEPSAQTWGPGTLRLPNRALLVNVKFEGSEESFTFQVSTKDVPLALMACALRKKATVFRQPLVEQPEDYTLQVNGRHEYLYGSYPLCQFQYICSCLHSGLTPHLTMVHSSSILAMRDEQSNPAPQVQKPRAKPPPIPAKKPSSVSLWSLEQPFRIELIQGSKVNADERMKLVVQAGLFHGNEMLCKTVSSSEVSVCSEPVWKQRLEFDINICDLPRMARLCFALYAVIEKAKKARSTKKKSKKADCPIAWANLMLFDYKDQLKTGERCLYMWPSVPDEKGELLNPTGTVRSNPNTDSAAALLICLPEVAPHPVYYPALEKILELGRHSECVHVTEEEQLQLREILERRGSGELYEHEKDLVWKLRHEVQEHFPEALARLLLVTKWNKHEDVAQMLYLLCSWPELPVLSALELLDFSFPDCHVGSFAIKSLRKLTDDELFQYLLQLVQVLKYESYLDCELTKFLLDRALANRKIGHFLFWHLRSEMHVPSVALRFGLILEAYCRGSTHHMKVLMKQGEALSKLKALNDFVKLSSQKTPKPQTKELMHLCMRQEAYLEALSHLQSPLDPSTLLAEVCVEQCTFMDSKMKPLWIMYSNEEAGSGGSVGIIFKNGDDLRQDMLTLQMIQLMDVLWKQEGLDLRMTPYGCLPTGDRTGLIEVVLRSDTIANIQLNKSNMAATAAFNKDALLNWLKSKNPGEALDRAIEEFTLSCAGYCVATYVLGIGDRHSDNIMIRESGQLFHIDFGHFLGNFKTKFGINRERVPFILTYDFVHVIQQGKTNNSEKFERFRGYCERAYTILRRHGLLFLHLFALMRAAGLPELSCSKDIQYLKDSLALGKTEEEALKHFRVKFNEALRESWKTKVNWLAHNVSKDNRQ
T1 sequence (P27986 whole entry partner): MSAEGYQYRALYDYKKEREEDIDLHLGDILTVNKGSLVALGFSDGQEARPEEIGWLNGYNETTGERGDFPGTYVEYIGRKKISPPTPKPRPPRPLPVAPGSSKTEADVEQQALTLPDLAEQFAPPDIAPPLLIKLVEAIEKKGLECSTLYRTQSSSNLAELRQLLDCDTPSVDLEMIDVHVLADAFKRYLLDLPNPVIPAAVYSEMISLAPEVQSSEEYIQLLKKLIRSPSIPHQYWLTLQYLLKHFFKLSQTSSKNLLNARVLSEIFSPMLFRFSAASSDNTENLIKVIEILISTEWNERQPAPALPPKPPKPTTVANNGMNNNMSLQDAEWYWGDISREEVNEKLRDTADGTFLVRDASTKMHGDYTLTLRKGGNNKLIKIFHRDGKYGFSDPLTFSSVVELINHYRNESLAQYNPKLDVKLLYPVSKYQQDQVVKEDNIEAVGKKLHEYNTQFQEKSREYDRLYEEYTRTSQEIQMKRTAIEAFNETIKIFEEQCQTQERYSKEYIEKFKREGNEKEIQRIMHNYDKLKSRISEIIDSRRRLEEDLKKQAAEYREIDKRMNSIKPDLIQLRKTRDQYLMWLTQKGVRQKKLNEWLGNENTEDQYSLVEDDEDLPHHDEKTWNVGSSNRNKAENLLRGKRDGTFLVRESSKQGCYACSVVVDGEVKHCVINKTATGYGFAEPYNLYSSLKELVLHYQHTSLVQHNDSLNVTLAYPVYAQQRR
How it was run: (§1)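 HTRF read-out: product PIP3 displaces biotinylated PIP3 from GST-tagged GRP1 PH domain, lowering Eu/APC FRET. Kinase reactions used purified recombinant enzyme, PIP2 10 μM, ATP 10 μM, 1 h at room temperature. Percent inhibition over 12 concentrations (20 μM–0.1 nM) fitted for IC50.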

PI3Kγ = target: T2, PI3Kγ (Homo sapiens, UniProt P48736); assay: PI3 Kinase HTRF assay, PI3Kγ; format: biochemical; conditions: 10 μM PIP2, 10 μM ATP; read-out: PI3K γ IC50
T2 construct: purchased Millipore Corporation 14-558-K
T2 sequence (P48736 whole entry): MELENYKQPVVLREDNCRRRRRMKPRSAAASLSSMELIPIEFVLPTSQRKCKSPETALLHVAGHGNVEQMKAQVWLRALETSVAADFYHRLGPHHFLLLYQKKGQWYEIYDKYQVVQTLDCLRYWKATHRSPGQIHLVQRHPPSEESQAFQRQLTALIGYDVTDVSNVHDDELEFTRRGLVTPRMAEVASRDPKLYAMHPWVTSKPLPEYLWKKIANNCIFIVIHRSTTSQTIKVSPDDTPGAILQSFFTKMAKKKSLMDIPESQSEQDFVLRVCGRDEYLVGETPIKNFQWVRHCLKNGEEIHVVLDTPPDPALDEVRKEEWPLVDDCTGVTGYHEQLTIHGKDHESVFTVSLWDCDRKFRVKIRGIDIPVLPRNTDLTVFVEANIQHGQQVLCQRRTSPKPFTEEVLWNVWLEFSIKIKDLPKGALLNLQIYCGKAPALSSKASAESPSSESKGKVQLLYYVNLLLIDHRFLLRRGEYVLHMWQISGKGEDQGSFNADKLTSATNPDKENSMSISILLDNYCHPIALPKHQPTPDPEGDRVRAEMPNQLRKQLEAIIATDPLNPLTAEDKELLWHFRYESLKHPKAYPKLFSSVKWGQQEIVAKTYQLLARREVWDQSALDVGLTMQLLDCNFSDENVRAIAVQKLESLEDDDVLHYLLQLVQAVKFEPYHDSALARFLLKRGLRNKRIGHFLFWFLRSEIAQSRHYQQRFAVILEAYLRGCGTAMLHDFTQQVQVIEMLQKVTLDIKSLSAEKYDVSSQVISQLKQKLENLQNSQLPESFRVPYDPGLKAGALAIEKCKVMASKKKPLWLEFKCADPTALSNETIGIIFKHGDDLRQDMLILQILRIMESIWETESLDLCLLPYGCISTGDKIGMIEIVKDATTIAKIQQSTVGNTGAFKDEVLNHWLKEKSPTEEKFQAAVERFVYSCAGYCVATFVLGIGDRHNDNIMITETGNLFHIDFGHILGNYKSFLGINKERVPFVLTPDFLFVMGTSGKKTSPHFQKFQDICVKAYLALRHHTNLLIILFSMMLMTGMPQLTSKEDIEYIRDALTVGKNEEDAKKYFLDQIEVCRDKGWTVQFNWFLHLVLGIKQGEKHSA
How it was run: as §1

PI3Kα = target: T3, PI3Kα (Homo sapiens, UniProt P42336); assay: PI3 Kinase HTRF assay, PI3Kα; format: biochemical; conditions: 10 μM PIP2, 10 μM ATP; read-out: PI3K α IC50
T3 construct: purchased Millipore Corporation 14-602-K
T3 sequence (P42336 whole entry): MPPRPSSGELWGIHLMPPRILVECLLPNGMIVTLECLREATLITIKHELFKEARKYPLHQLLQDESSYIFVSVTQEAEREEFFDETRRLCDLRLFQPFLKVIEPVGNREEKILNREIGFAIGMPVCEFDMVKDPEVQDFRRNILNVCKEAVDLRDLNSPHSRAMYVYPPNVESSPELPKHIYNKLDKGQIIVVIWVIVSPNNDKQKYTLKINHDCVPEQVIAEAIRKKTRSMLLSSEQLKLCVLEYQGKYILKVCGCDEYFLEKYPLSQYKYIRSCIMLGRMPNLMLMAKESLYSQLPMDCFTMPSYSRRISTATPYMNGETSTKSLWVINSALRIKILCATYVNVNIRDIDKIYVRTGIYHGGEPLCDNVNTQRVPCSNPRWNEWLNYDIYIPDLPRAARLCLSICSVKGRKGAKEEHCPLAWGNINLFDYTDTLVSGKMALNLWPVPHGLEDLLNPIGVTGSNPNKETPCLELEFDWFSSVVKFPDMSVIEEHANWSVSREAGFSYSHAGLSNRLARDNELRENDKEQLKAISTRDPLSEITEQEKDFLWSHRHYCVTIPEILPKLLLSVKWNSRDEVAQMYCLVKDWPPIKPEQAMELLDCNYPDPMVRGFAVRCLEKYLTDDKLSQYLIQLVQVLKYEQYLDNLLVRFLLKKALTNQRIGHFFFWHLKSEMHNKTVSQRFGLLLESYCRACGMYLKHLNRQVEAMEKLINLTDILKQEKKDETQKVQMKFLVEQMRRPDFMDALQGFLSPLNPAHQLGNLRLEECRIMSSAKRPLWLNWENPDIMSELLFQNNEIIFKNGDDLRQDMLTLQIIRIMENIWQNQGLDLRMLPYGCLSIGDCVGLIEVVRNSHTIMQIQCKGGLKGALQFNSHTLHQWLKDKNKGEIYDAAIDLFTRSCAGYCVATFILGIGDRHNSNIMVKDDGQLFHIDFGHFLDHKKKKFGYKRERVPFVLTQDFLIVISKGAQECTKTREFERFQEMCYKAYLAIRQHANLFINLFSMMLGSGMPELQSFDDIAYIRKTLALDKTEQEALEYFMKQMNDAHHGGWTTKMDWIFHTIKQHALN
T3 sequence (P27986 whole entry partner): as the sequence (P27986 whole entry partner) above
How it was run: as §1

PI3Kβ = target: T4, PI3Kβ (Homo sapiens, UniProt P42338); assay: PI3 Kinase HTRF assay, PI3Kβ; format: biochemical; conditions: 10 μM PIP2, 10 μM ATP; read-out: PI3K β IC50
T4 construct: purchased Millipore Corporation 14-603-K
T4 sequence (P42338 whole entry): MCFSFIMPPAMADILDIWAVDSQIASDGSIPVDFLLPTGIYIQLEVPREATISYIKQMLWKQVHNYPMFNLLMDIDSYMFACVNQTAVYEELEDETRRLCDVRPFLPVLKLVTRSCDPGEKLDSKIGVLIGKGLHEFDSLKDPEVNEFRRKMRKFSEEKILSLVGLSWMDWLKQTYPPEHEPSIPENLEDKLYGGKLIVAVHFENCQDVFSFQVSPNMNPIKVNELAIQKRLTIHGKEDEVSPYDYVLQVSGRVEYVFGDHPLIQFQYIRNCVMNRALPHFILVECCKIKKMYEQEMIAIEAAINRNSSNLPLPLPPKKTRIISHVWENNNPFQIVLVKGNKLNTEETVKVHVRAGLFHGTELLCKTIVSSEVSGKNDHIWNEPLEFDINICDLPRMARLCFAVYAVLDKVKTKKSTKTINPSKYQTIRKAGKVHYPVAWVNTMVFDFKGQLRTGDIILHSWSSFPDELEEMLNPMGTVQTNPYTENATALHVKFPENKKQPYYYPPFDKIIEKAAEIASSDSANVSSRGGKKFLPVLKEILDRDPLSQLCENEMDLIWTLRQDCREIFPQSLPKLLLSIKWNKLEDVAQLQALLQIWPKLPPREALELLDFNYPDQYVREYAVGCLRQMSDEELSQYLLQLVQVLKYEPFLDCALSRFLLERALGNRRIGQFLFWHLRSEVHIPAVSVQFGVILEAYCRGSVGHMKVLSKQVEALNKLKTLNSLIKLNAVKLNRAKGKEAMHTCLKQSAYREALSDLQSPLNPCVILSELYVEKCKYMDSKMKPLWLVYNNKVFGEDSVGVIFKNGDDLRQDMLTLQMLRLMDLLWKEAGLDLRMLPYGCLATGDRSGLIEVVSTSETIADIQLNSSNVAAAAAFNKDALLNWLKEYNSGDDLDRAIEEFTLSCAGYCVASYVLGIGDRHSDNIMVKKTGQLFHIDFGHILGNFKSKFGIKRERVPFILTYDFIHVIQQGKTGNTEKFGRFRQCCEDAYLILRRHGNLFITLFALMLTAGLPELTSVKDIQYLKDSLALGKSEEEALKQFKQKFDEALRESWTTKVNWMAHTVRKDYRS
T4 sequence (P27986 whole entry partner): as the sequence (P27986 whole entry partner) above
How it was run: as §1

Balb/c splenic B cells = assay: B cell activation and proliferation assay (Alamar Blue); format: cell-based; conditions: Mus musculus, read-out: B cell prolif. IC50
How it was run: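 Purified cells (50,000/well, RPMI + 10% FBS) were preincubated 30 min at 37 °C with compound (0.2% DMSO final). Stimulation was with a cocktail containing either 10 ug/ml LPS or 5 ug/ml anti-mouse IgM F(ab′)2 plus 2 ng/ml mouse IL4, for 72 h. Viability by 5 h Alamar Blue reduction (560Ex/590Em); IC50 or EC50 fitted.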

| IC50 (PI3Kδ) [nM] | IC50 (PI3Kγ) [µM] | IC50 (PI3Kα) [µM] | IC50 (PI3Kβ) [µM] | SMILES | chemical stability [1] | plasma stability [2] | lupus symptoms (lupus symptoms) | IC50 (Balb/c splenic B cells) [nM] |
| --- | --- | --- | --- | --- | --- | --- | --- | --- |
| < 100 | < 10 | > 10 | > 10 | C[C@H](Nc1ncnc2[nH]cnc12)c1cc2cccc(Cl)c2c(C(=O)N2CCCC2)n1 [Compound 14] |  |  |  | < 100 |
| < 100 | < 10 | < 10 | < 1 | C[C@H](Nc1ncnc2[nH]cnc12)c1cc2cccc(Cl)c2c(C(=O)N2CCN[C@@H](C)C2)n1 [Compound 18] |  |  |  | < 1000 |
| < 100 | < 0.1 | > 10 | < 10 | C[C@H](Nc1nc(N)nc2cccnc12)c1cc2cccc(Cl)c2c(C(=O)N2CCOCC2)n1 [Compound 238] |  |  |  | < 100 |
| < 100 | < 0.1 | < 10 | < 10 | C[C@H](Nc1ncnc2[nH]cc(C(N)=O)c12)c1cc2cccc(Cl)c2c(C(=O)N2CCOCC2)n1 [Compound 204] |  |  |  | < 100 |
| < 100 | < 1 | > 10 | < 10 | C[C@H](Nc1ncnc2scnc12)c1cc2cccc(Cl)c2c(C(=O)N2CCS(=O)(=O)CC2)n1 [Compound 220] |  |  |  | < 100 |
| < 1000 | < 10 | > 10 | < 10 | C[C@H](Nc1ncnc2[nH]cnc12)c1cc2cccc(Cl)c2c(C(=O)N2CCC2)n1 [Compound 24] |  |  |  | < 1000 |

More lines, now with the values behind:

| SMILES | IC50 (PI3Kδ) [nM] | IC50 (PI3Kγ) [µM] | IC50 (PI3Kα) [µM] | IC50 (PI3Kβ) [µM] | chemical stability [1] | plasma stability [2] | lupus symptoms (lupus symptoms) | IC50 (Balb/c splenic B cells) [nM] |
| --- | --- | --- | --- | --- | --- | --- | --- | --- |
| O=C(O)CCCc1ccc(N(CCCl)CCCl)cc1 [chlorambucil] |  |  |  |  | largely hydrolyzed over the course of 24 hours |  |  |  |
| CC(C)[N+](C)(CCOC(=O)C1c2ccccc2Oc2ccccc21)C(C)C [propantheline] |  |  |  |  |  | intermediate plasma stability |  |  |
| CO[C@H]1C[C@@H]2CC[C@@H](C)[C@@](O)(O2)C(=O)C(=O)N2CCCC[C@H]2C(=O)O[C@H]([C@H](C)C[C@@H]2CC[C@@H](OCCO)[C@H](OC)C2)CC(=O)[C@H](C)/C=C(\C)[C@@H](O)[C@@H](OC)C(=O)[C@H](C)C[C@H](C)/C=C/C=C/C=C/1C [RAD001, everolimus] |  |  |  |  |  |  | ameliorate lupus symptoms |  |
| C[C@H](Nc1ncnc2[nH]cc(F)c12)c1cc2cccc(Cl)c2c(C(=O)N2C3CCC2COC3)n1 [Compound 208] | < 100 | < 1 | < 10 | < 10 |  |  |  | < 100 |
| C[C@H](Nc1ncnc2scnc12)c1cc2cccc(Cl)c2c(C(=O)N2C3CCC2COC3)n1 [Compound 124] | < 100 | < 1 | < 10 | < 1 |  |  |  | < 100 |
| C[C@H](Nc1ncnc2[nH]cnc12)c1nc(CCN2CCOCC2)c2c(Cl)cccc2c1F [Compound 85, (S)—N-(1-(8-chloro-4-fluoro-1-(2-morpholinoethyl)isoquinolin-3-yl)ethyl)-9H-purin-6-amine] | < 1000 | > 10 | > 10 | > 10 |  |  |  | < 1000 |
| C[C@H](Nc1ncnc2cccnc12)c1cc2cccc(Cl)c2c(OC2CCN(S(C)(=O)=O)CC2)n1 [Compound 173] | < 100 | < 10 | > 10 | < 10 |  |  |  | < 1000 |
| Cc1cccc2cc([C@H](C)Nc3ncnc4cccnc34)nc(C(=O)N3CCOCC3)c12 [Compound 166] | < 100 | < 1 | < 10 | < 10 |  |  |  | < 100 |
| Cc1cccc2cc([C@H](C)Nc3ncnc4cccnc34)nc(C(=O)N3C4CCC3COC4)c12 [Compound 167] | < 100 | < 1 | < 10 | < 10 |  |  |  | < 100 |
| CCCOc1cc(N)ccc1C(=O)OCCN(CC)CC [propoxycaine] |  |  |  |  |  | low plasma stability |  |  |
| CC(C)N1CCC(Oc2nc([C@H](C)Nc3ccnc4ccnn34)cc3cccc(Cl)c23)CC1 [Compound 107] | < 100 | < 10 | < 10 | < 10 |  |  |  | < 100 |
| C[C@H](Nc1ncnc2scnc12)c1cc2cccc(Cl)c2c(C(=O)NC2CCOCC2)n1 [Compound 144] | < 100 | < 10 | > 10 | > 10 |  |  |  | < 100 |
